# Values joined by “and” are separate entries in the source; they are usually repeats but may differ in a detail not shown here. Identical values can stand only once.
# Columns and labels:
# Assay in all cases: PDSP GPCR panel primary binding assays at 10 μM
# [1] = target: T1, cloned human or rodent CNS receptors, channels, and transporters (PDSP panel) (Homo sapiens, UniProt P28222); details: primary assay
# T1 construct: expressed in transfected cells
# Outline: (§1)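 Radioligand displacement at cloned human or rodent CNS targets: 46–47 primary binding assays run in quadruplicate at 10 μM. Targets where the compound displaced an average of >50% of radiolabeled standard ligand went to secondary binding in 11-point dose-response, in triplicate; none run for H3, PBR or GABAA.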
# [2] = target: T2, cloned human or rodent CNS receptors, channels, and transporters (PDSP panel) (Homo sapiens, UniProt P08908); details: primary assay
# T2 construct: expressed in transfected cells
# T2 sequence (P08908 1-422): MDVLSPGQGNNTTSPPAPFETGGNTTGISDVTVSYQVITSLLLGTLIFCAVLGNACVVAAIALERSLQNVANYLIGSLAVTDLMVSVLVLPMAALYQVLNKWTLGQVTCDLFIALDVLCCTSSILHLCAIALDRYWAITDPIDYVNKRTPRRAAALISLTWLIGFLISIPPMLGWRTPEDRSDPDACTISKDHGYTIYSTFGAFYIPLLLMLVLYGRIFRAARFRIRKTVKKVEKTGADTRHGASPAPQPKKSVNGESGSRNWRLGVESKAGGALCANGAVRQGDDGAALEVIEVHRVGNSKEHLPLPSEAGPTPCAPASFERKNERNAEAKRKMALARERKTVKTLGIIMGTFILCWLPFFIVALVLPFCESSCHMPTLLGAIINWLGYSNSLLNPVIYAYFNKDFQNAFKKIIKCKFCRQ
# Outline: as §1
# [3] = target: T3, cloned human or rodent CNS receptors, channels, and transporters (PDSP panel) (Homo sapiens, UniProt P41145); details: primary assay
# T3 construct: expressed in transfected cells
# Outline: as §1
# [4] = test system: cloned human or rodent CNS receptors, channels, and transporters (PDSP panel); details: for Mean % / Inhibition 1 / Inhibition 2 / Inhibition 3 / Inhibition 4: primary assay
# Outline: as §1
# [5] = target: T4, cloned human or rodent CNS receptors, channels, and transporters (PDSP panel) (Homo sapiens, UniProt P28221); details: primary assay
# T4 construct: expressed in transfected cells
# Outline: as §1
# [6] = target: T5, cloned human or rodent CNS receptors, channels, and transporters (PDSP panel) (Homo sapiens, UniProt P08912); details: primary assay
# T5 construct: expressed in transfected cells
# T5 sequence (P08912 1-532): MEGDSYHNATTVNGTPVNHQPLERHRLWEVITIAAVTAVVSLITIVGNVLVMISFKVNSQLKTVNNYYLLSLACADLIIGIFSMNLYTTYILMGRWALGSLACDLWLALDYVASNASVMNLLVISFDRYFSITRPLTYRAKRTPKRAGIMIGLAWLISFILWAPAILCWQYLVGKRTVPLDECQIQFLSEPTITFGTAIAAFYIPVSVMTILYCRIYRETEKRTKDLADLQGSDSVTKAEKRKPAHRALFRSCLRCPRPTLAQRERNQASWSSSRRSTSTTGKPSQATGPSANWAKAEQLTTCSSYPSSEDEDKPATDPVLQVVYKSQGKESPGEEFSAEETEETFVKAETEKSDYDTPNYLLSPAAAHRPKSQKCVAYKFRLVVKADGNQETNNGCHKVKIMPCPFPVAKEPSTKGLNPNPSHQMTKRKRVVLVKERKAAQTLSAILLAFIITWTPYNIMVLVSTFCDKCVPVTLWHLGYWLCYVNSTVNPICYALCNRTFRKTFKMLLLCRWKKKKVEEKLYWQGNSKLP
# Outline: as §1
# [7] = target: T6, cloned human or rodent CNS receptors, channels, and transporters (PDSP panel) (Homo sapiens, UniProt P35367); details: primary assay
# T6 construct: expressed in transfected cells
# Outline: as §1
# [8] = Receptor BZP Rat Brain Site, 10 μM
# T3 sequence (P41145 whole entry): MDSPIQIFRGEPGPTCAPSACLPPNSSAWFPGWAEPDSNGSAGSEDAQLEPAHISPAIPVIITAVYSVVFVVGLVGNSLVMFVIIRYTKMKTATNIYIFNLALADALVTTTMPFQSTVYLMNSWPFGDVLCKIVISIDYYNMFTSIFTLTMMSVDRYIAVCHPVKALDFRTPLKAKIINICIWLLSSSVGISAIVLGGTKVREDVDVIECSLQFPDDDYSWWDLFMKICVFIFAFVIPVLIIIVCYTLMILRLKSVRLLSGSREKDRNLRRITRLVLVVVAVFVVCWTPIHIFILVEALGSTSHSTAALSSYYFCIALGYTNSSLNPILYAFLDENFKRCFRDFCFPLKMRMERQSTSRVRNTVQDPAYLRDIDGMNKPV
# T1 sequence (P28222 whole entry): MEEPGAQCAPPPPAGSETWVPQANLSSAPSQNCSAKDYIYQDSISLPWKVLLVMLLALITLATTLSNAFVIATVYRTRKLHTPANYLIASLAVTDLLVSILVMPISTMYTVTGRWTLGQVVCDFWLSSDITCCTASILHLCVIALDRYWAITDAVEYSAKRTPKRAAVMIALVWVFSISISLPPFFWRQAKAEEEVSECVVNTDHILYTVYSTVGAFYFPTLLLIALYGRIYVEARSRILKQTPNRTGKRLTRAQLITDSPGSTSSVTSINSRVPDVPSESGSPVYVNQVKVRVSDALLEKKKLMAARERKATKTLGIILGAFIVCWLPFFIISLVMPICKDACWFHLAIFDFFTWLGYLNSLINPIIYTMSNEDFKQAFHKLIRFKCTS
# T4 sequence (P28221 whole entry): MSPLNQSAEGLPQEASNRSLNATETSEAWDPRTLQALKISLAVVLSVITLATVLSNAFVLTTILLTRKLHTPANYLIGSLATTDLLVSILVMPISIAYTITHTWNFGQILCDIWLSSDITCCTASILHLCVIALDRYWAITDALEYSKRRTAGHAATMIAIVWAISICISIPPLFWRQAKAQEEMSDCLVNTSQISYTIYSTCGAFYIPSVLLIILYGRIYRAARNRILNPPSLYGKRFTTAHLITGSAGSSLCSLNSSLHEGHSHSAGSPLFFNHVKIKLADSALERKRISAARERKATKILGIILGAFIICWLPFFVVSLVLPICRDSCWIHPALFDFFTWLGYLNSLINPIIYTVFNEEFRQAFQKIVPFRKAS
# T6 sequence (P35367 whole entry): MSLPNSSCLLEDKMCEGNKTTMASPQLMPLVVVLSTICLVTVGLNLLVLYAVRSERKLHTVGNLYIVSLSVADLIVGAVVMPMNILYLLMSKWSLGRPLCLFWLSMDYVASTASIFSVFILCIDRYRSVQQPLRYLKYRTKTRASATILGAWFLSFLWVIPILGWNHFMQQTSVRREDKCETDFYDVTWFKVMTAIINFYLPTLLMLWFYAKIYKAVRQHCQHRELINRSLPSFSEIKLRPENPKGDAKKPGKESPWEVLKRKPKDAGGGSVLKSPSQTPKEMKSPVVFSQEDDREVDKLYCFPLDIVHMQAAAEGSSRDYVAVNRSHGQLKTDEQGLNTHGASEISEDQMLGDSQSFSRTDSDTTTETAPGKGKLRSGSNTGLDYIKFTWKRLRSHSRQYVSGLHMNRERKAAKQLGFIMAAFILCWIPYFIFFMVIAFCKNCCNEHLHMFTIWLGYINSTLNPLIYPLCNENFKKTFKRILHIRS
structure (smiles),measurement,setting,value
"CC(=O)N1CCC(NC(=O)NC23CC4CC(CC(C4)C2)C3)CC1 [UNC10302683A, AR9281]",Mean %,"[1]; 5-HT1B, mean inhibition",-0.64%
same,Inhibition 1,"[1]; 5-HT1B, replicate 1",23.19%
same,Inhibition 2,"[1]; 5-HT1B, replicate 2",-3.93%
same,Inhibition 3,"[1]; 5-HT1B, replicate 3",-10.42%
same,Inhibition 4,"[1]; 5-HT1B, replicate 4",-11.4%
same,Mean %,"[2]; 5-HT1A, mean inhibition",-6.08%
same,Inhibition 1,"[2]; 5-HT1A, replicate 1",5.09%
same,Inhibition 2,"[2]; 5-HT1A, replicate 2",-13.88%
same,Inhibition 3,"[2]; 5-HT1A, replicate 3",-5.6%
same,Inhibition 4,"[2]; 5-HT1A, replicate 4",-9.91%
same,Mean %,"[3]; KOR, mean inhibition",-25.19%
same,Inhibition 1,"[3]; KOR, replicate 1",-27.43%
same,Inhibition 2,"[3]; KOR, replicate 2",-29%
same,Inhibition 3,"[3]; KOR, replicate 3",-23.06%
same,Inhibition 4,"[3]; KOR, replicate 4",-21.27%
same,Mean %,"[4]; Alpha1A, mean inhibition",-5.99%
same,Inhibition 1,"[4]; Alpha1A, replicate 1",5.7%
same,Inhibition 2,"[4]; Alpha1A, replicate 2",-8.88%
same,Inhibition 3,"[4]; Alpha1A, replicate 3",-13.37%
same,Inhibition 4,"[4]; Alpha1A, replicate 4",-7.39%
same,Mean %,"[4]; Alpha2A, mean inhibition",-4.95%
same,Inhibition 1,"[4]; Alpha2A, replicate 1",1.83%
same,Inhibition 2,"[4]; Alpha2A, replicate 2",1.33%
same,Inhibition 3,"[4]; Alpha2A, replicate 3",-3.6%
same,Inhibition 4,"[4]; Alpha2A, replicate 4",-19.37%
same,Mean %,"[4]; Alpha2C, mean inhibition",-1.59%
same,Inhibition 1,"[4]; Alpha2C, replicate 1",8.16%
same,Inhibition 2,"[4]; Alpha2C, replicate 2",-7.23%
same,Inhibition 3,"[4]; Alpha2C, replicate 3",-5.47%
same,Inhibition 4,"[4]; Alpha2C, replicate 4",-1.81%
same,Mean %,"[4]; BZP Rat Brain Site, mean inhibition",-1.68%
same,Inhibition 1,"[4]; BZP Rat Brain Site, replicate 1",-9.6%
same,Inhibition 2,"[4]; BZP Rat Brain Site, replicate 2",-7.42%
same,Inhibition 3,"[4]; BZP Rat Brain Site, replicate 3",1.02%
same,Inhibition 4,"[4]; BZP Rat Brain Site, replicate 4",9.27%
same,Mean %,"[4]; DOR, mean inhibition",-7.7%
same,Inhibition 1,"[4]; DOR, replicate 1",-16.42%
same,Inhibition 2,"[4]; DOR, replicate 2",-2.69%
same,Inhibition 3,"[4]; DOR, replicate 3",0.93%
same,Inhibition 4,"[4]; DOR, replicate 4",-12.63%
same,Inhibition 1,"[4]; GABAA, replicate 1",12.11% and 21.01%
same,Inhibition 2,"[4]; GABAA, replicate 2",4.71% and -10.34%
same,Inhibition 3,"[4]; GABAA, replicate 3",1.76% and -2.77%
same,Inhibition 4,"[4]; GABAA, replicate 4",5.45% and -49.8%
same,Mean %,"[4]; H3, mean inhibition",8.09%
same,Inhibition 1,"[4]; H3, replicate 1",9.84%
same,Inhibition 2,"[4]; H3, replicate 2",-10.86%
same,Inhibition 3,"[4]; H3, replicate 3",12.17%
same,Inhibition 4,"[4]; H3, replicate 4",21.2%
same,Mean %,"[4]; H4, mean inhibition",-2.1%
same,Inhibition 1,"[4]; H4, replicate 1",-0.42%
same,Inhibition 2,"[4]; H4, replicate 2",-2.58%
same,Inhibition 3,"[4]; H4, replicate 3",-25.38%
same,Inhibition 4,"[4]; H4, replicate 4",19.98%
same,Mean %,"[4]; Sigma 1, mean inhibition",8.41%
same,Mean %,"[4]; Sigma 2, mean inhibition",-5.79%
same,Mean %,"[5]; 5-HT1D, mean inhibition",6.45%
same,Inhibition 1,"[5]; 5-HT1D, replicate 1",17.8%
same,Inhibition 2,"[5]; 5-HT1D, replicate 2",3.64%
same,Inhibition 3,"[5]; 5-HT1D, replicate 3",4.06%
same,Inhibition 4,"[5]; 5-HT1D, replicate 4",0.31%
same,Mean %,"[6]; M5, mean inhibition",-4.97%
same,Inhibition 1,"[6]; M5, replicate 1",0.06%
same,Inhibition 2,"[6]; M5, replicate 2",-4.77%
same,Inhibition 3,"[6]; M5, replicate 3",-10.3%
same,Inhibition 4,"[6]; M5, replicate 4",-4.87%
same,Mean %,"[7]; H1, mean inhibition",76.51%
same,Inhibition 1,"[7]; H1, replicate 1",98.85%
same,Inhibition 2,"[7]; H1, replicate 2",86%
same,Inhibition 3,"[7]; H1, replicate 3",68.77%
same,Inhibition 4,"[7]; H1, replicate 4",52.43%
"CCCCNc1ncc2c(-c3ccc(CN4CCN(C)CC4)cc3)cn([C@H]3CC[C@H](O)CC3)c2n1 [UNC2025C, UNC2025]",Inhibition 1,"[1]; Receptor 5-HT1B, 10 μM",31.06%
same,Inhibition 2,"[1]; Receptor 5-HT1B, 10 μM",11.01%
same,Inhibition 3,"[1]; Receptor 5-HT1B, 10 μM",10.42%
same,Inhibition 4,"[1]; Receptor 5-HT1B, 10 μM",12.97%
same,Mean %,"[1]; Receptor 5-HT1B, 10 μM, mean of Inhibition 1-4",16.37%
same,Inhibition 1,"[2]; Receptor 5-HT1A, 10 μM",9.39%
same,Inhibition 2,"[2]; Receptor 5-HT1A, 10 μM",-18.53%
same,Inhibition 3,"[2]; Receptor 5-HT1A, 10 μM",19.05%
same,Inhibition 4,"[2]; Receptor 5-HT1A, 10 μM",31.46%
same,Mean %,"[2]; Receptor 5-HT1A, 10 μM, mean of Inhibition 1-4",10.34%
same,Inhibition 1,"[3]; Receptor KOR, 10 μM",-17.91%
same,Inhibition 2,"[3]; Receptor KOR, 10 μM",-11.2%
same,Inhibition 3,"[3]; Receptor KOR, 10 μM",-40.41%
same,Inhibition 4,"[3]; Receptor KOR, 10 μM",-19.03%
same,Mean %,"[3]; Receptor KOR, 10 μM, mean of Inhibition 1-4",-22.14%
same,Affinity for receptors in primary assays,"[4]; 10 μM, 46-47 primary binding assays",possessed affinity for the most receptors in primary assays
same,Inhibition 1,"[4]; Receptor Alpha1A, 10 μM",55.27%
same,Inhibition 2,"[4]; Receptor Alpha1A, 10 μM",34.14%
same,Inhibition 3,"[4]; Receptor Alpha1A, 10 μM",47.98%
same,Inhibition 4,"[4]; Receptor Alpha1A, 10 μM",43.68%
same,Mean %,"[4]; Receptor Alpha1A, 10 μM, mean of Inhibition 1-4",45.27%
same,Inhibition 1,"[4]; Receptor Alpha2A, 10 μM",41.44%
same,Inhibition 2,"[4]; Receptor Alpha2A, 10 μM",35.02%
same,Inhibition 3,"[4]; Receptor Alpha2A, 10 μM",40.8%
same,Inhibition 4,"[4]; Receptor Alpha2A, 10 μM",38.73%
same,Mean %,"[4]; Receptor Alpha2A, 10 μM, mean of Inhibition 1-4",39%
same,Inhibition 1,"[4]; Receptor Alpha2C, 10 μM",51.96%
same,Inhibition 2,"[4]; Receptor Alpha2C, 10 μM",38.52%
same,Inhibition 3,"[4]; Receptor Alpha2C, 10 μM",26.65%
same,Inhibition 4,"[4]; Receptor Alpha2C, 10 μM",27.54%
same,Mean %,"[4]; Receptor Alpha2C, 10 μM, mean of Inhibition 1-4",36.17%
same,Inhibition 1,[4]; [8],-0.21%
same,Inhibition 2,[4]; [8],6.71%
same,Inhibition 3,[4]; [8],5.47%
same,Inhibition 4,[4]; [8],13.44%
same,Mean %,"[4]; Receptor BZP Rat Brain Site, 10 μM, mean of Inhibition 1-4",6.35%
same,Inhibition 1,"[4]; Receptor DOR, 10 μM",-5.58%
same,Inhibition 2,"[4]; Receptor DOR, 10 μM",-6.66%
same,Inhibition 3,"[4]; Receptor DOR, 10 μM",-9.56%
same,Inhibition 4,"[4]; Receptor DOR, 10 μM",1.65%
same,Mean %,"[4]; Receptor DOR, 10 μM, mean of Inhibition 1-4",-5.04%
same,Inhibition 1,"[4]; Receptor H3, 10 μM",93.48%
same,Inhibition 2,"[4]; Receptor H3, 10 μM",95.52%
same,Inhibition 3,"[4]; Receptor H3, 10 μM",93.48%
same,Inhibition 4,"[4]; Receptor H3, 10 μM",100.47%
same,Mean %,"[4]; Receptor H3, 10 μM, mean of Inhibition 1-4",95.74%
same,Inhibition 1,"[4]; Receptor H4, 10 μM",42.06%
same,Inhibition 2,"[4]; Receptor H4, 10 μM",42.3%
same,Inhibition 3,"[4]; Receptor H4, 10 μM",60.79%
same,Inhibition 4,"[4]; Receptor H4, 10 μM",92.47%
same,Mean %,"[4]; Receptor H4, 10 μM, mean of Inhibition 1-4",59.41%
same,Inhibition 1,"[4]; Receptor Sigma 1, 10 μM",4.46%
same,Inhibition 2,"[4]; Receptor Sigma 1, 10 μM",61.96%
same,Inhibition 3,"[4]; Receptor Sigma 1, 10 μM",35.63%
same,Inhibition 4,"[4]; Receptor Sigma 1, 10 μM",46.38%
same,Mean %,"[4]; Receptor Sigma 1, 10 μM, mean of Inhibition 1-4",37.11%
same,Inhibition 1,"[4]; Receptor Sigma 2, 10 μM",97.53%
same,Inhibition 2,"[4]; Receptor Sigma 2, 10 μM",96.04%
same,Inhibition 3,"[4]; Receptor Sigma 2, 10 μM",97.25%
same,Inhibition 4,"[4]; Receptor Sigma 2, 10 μM",98.03%
same,Mean %,"[4]; Receptor Sigma 2, 10 μM, mean of Inhibition 1-4",97.21%
same,Inhibition 1,"[5]; Receptor 5-HT1D, 10 μM",51.95%
same,Inhibition 2,"[5]; Receptor 5-HT1D, 10 μM",44.87%
same,Inhibition 3,"[5]; Receptor 5-HT1D, 10 μM",26.55%
same,Inhibition 4,"[5]; Receptor 5-HT1D, 10 μM",48.2%
same,Mean %,"[5]; Receptor 5-HT1D, 10 μM, mean of Inhibition 1-4",42.89%
same,Inhibition 1,"[6]; Receptor M5, 10 μM",16.16%
same,Inhibition 2,"[6]; Receptor M5, 10 μM",21.19%
same,Inhibition 3,"[6]; Receptor M5, 10 μM",19.69%
same,Inhibition 4,"[6]; Receptor M5, 10 μM",10.93%
same,Mean %,"[6]; Receptor M5, 10 μM, mean of Inhibition 1-4",16.99%
same,Inhibition 1,"[7]; Receptor H1, 10 μM",34.93%
same,Inhibition 2,"[7]; Receptor H1, 10 μM",33.32%
same,Inhibition 3,"[7]; Receptor H1, 10 μM",29.49%
same,Inhibition 4,"[7]; Receptor H1, 10 μM",24.93%
same,Mean %,"[7]; Receptor H1, 10 μM, mean of Inhibition 1-4",30.67%
